Strand notation (5' to 3'): a small letter for the sugar, then the base; units joined by * are phosphorothioate-linked, units joined directly phosphodiester-linked; [ ] holds rarer units or linkages, { } end groups; capitals alone tell only the bases. e = 2'-O-(2-methoxyethyl) (MOE); k = constrained ethyl (cEt); [5mC] = 5-methylcytosine; d = 2'-deoxy (DNA); m = 2'-O-methyl

39 substances from patent publication US11214803B2, “Modulators of YAP1 expression” (Ionis Pharmaceuticals, Inc., priority 2019, dated 2022) can be followed below.

For this data set, the system named is Yap1 mRNA. Put plainly: Antisense inhibition of human Yap1 in SNU-449 cells by modified oligonucleotides, single dose (Example 5, RTS36584). Format: cell-based. The method in brief: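 Each modified oligonucleotide is applied by free uptake to SNU-449 cultures at 2,000 nM, and total RNA is harvested around 48 h later. Yap1 transcript, quantified with the RTS36584 set and corrected for RIBOGREEN RNA content, is given as % UTC. Asterisks mark sequences overlapping the amplicon.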

[1] abbreviates: Table 39, SNU-449 cells, 10,000 cells per well, free uptake, 2,000 nM oligonucleotide, approx. 48 hours, RTS36584, normalized to RIBOGREEN, Yap1 mRNA relative to untreated control.
Setting [2] is: Table 44 experiment, SNU-449 cells, 10,000 cells per well, free uptake, 2,000 nM, approximately 48 hours, RTS36584, Yap1 mRNA normalized to RIBOGREEN, relative to untreated control cells.
[3] abbreviates: Table 52, Yap1 mRNA, modified oligonucleotides targeting SEQ ID NO: 1 and 2.
The mark [4] stands for this setting: Table 48, Yap1 mRNA level relative to untreated control, modified oligonucleotides targeting SEQ ID NO.: 1 and 2.
Where [5] appears, read: Table 49, Yap1 mRNA level relative to untreated control, modified oligonucleotides targeting SEQ ID NO.: 1 and 2.
Setting [6] is: Table 40 (separate experiment), SNU-449 cells, 10,000 cells per well, free uptake, 2,000 nM oligonucleotide, approx. 48 hours, RTS36584, normalized to RIBOGREEN, Yap1 mRNA relative to untreated control.
Where [7] appears, read: Table 43 experiment, SNU-449 cells, 10,000 cells per well, free uptake, 2,000 nM, approximately 48 hours, RTS36584, Yap1 mRNA normalized to RIBOGREEN, relative to untreated control cells.
Where [8] appears, read: Table 45, Yap1 mRNA as percent of untreated control, SNU-449 cells, single dose.
Where [9] appears, read: Yap1 mRNA, percent of untreated control, modified oligonucleotides targeting SEQ ID NO: 1 and 2, Table 47.
Where [10] appears, read: Table 50, Yap1 mRNA remaining as percent of untreated control (UT), SNU-449 cells, single dose.
Where [11] appears, read: Table 51, Yap1 mRNA remaining as percent of untreated control (UT), SNU-449 cells, single dose.
[12] abbreviates: Table 42 (separate experiment), SNU-449 cells, 10,000 cells per well, free uptake, 2,000 nM modified oligonucleotide, approximately 48 hours, RTS36584, normalized to RIBOGREEN, Yap1 mRNA relative to untreated control cells.

As for “1198378 (kA*dT*dA*dT*dG*dG*dA*dA*dA*dT*dT*kG*eT*k[5mC]*eT*k[5mC]; antisense) [Compound 1198378]”, the “YAP1 (% UTC)” value under setting [1] amounted to 39 % UTC.

With “1198510 (k[5mC]*kT*d[5mC]*dT*dT*dA*dT*dA*dT*dG*dG*eT*kT*eT*kT*eG; antisense) [Compound 1198510]”, under setting [2], the “YAP1 (% UTC)” value amounted to 8 % UTC. For the substance “1200836 (kT*k[5mC]*kA*dG*dA*mU*dT*dT*dA*dG*dG*dA*dT*kG*k[5mC]*kA; antisense) [Compound 1200836]”, the “YAP1 (% UT)” value under setting [3] came to 72 % UT. In the case of “1197217 (antisense kT*kT*kA*dA*dA*dG*dT*dG*dT*dA*dT*dG*dT*k[5mC]*kA*kG) [Compound 1197217]”, the “YAP1 (% UT)” value under setting [4] was 8 % UT. Take “1095567 (antisense k[5mC]*kA*k[5mC]*dT*dG*dA*dG*dG*dT*dA*dT*dA*kA*e[5mC]*kT*eG) [Compound 1095567]”: the “YAP1 (% UT)” value under setting [5] was 92 % UT. Take “1198741 (kT*eT*kA*d[5mC]*dA*dT*dT*dA*dG*dG*dA*dA*e[5mC]*eA*kA*kG; antisense) [Compound 1198741]”: the “YAP1 (% UTC)” value under setting [6] worked out at 60 % UTC.

Consider “1198249 (kT*kT*dA*dT*dA*dT*dG*dG*dT*dT*dT*eT*eG*eT*kG*kT; antisense) [Compound 1198249]”, for which the “YAP1 (% UTC)” value under setting [7] stood at 42 % UTC.

As to “1198961 (kA*kA*dA*dG*dT*dG*dT*dA*dT*dG*dT*k[5mC]*dA*kG*dA*kA; antisense) [Compound 1198961]”, under setting [8], the “YAP1 (% UTC)” value is recorded as 12 % UTC. For “1197183 (antisense kA*k[5mC]*kT*dT*dT*dT*dA*d[5mC]*dA*dT*dT*dA*dG*kG*kA*kA) [Compound 1197183]”, the “YAP1 (% UT)” value under setting [9] is given as 41 % UT. Regarding “1198969 (kA*kA*dG*dT*dA*dA*dG*dG*dT*dT*dT*k[5mC]*d[5mC]*k[5mC]*dA*kG; antisense) [Compound 1198969]”, the “YAP1 (% UTC)” value under setting [8] was 31 % UTC.

For “1197215 (antisense kA*kA*kG*dT*dG*dT*dA*dT*dG*dT*d[5mC]*dA*dG*kA*kA*kG) [Compound 1197215]”, the “YAP1 (% UT)” value under setting [4] is given as 13 % UT. In the case of “1198406 (kG*d[5mC]*dT*dT*dT*dG*dG*dA*dA*dG*dA*kT*e[5mC]*kT*eG*kA; antisense) [Compound 1198406]”, the “YAP1 (% UTC)” value under setting [1] is on record as 17 % UTC. For “1197196 (antisense k[5mC]*kA*kG*dA*dT*dT*dT*dA*dG*dG*dA*dT*dG*k[5mC]*kA*kT) [Compound 1197196]”, the “YAP1 (% UT)” value under setting [9] came out at 27 % UT. Regarding “1198512 (kA*kA*d[5mC]*dT*d[5mC]*dT*dT*dA*dT*dA*dT*eG*kG*eT*kT*eT; antisense) [Compound 1198512]”, the “YAP1 (% UTC)” value under setting [2] was determined as 62 % UTC.

On to “1198832 (kG*k[5mC]*dA*d[5mC]*dT*dT*dT*dT*dA*d[5mC]*dA*kT*eT*kA*eG*kG; antisense) [Compound 1198832]”, for which the “YAP1 (% UT)” value (Table 46, Yap1 mRNA as percent of untreated control, SNU-449 cells, single dose) was 20 % UT.

Consider “1198954 (kT*kG*dT*dA*dA*dT*dA*dT*dT*dG*d[5mC]*kA*dA*kT*d[5mC]*kT; antisense) [Compound 1198954]”, for which, under setting [8], the “YAP1 (% UTC)” value is 94 % UTC. As to “1200864 (kA*kA*k[5mC]*dT*dT*mU*dA*dA*dA*dG*dT*dG*dT*kA*kT*kG; antisense) [Compound 1200864]”, under setting [3], the “YAP1 (% UT)” value is given as 84 % UT. As to “1198554 (antisense kT*kT*kA*dG*dA*dG*dT*dA*dT*dG*dT*dG*kG*k[5mC]*kA*eA) [Compound 1198554]”, under setting [5], the “YAP1 (% UT)” value was found to be 16 % UT. For “1198589 (antisense k[5mC]*kA*kG*dA*dT*dT*dT*dA*dG*dG*dA*dT*kG*k[5mC]*kA*eT) [Compound 1198589]”, the “YAP1 (% UT)” value under setting [10] is given as 24 % UT. Turning to “1197291 (k[5mC]*kT*kT*dT*mU*dA*d[5mC]*dA*dT*dT*dA*dG*dG*kA*kA*k[5mC]; antisense) [Compound 1197291]”, the “YAP1 (% UT)” value under setting [10] is on record as 83 % UT. Take “1198245 (k[5mC]*kA*dG*dA*dT*dT*dT*dA*dG*dG*dA*eT*eG*e[5mC]*kA*kT; antisense) [Compound 1198245]”: the “YAP1 (% UTC)” value under setting [7] was 46 % UTC.

On to “1197312 (kT*kG*kT*dA*mU*dG*dT*d[5mC]*dA*dG*dA*dA*dG*kA*kG*kT; antisense) [Compound 1197312]”, for which the “YAP1 (% UT)” value under setting [11] is given as 10 % UT. Regarding “1197298 (kA*kT*kA*dG*mU*dG*d[5mC]*dT*dT*dT*dG*dG*dA*kA*kG*kA) [Compound 1197298]”, the “YAP1 (% UT)” value under setting [11] was 46 % UT. With “1198649 (kG*kA*dG*dG*dT*dA*dT*dA*dA*d[5mC]*dT*dG*kG*eG*k[5mC]*eA) [Compound 1198649]”, the “YAP1 (% UTC)” value under setting [12] was 27 % UTC. For the substance “1198310 (kA*k[5mC]*kT*dT*dT*dT*dA*d[5mC]*dA*dT*dT*dA*kG*eG*kA*eA; antisense) [Compound 1198310]”, the “YAP1 (% UT)” value under setting [4] was found to be 28 % UT.

Regarding “1200811 (kT*kT*kA*d[5mC]*dA*mU*dT*dA*dG*dG*dA*dA*d[5mC]*kA*kA*kG; antisense) [Compound 1200811]”, the “YAP1 (% UT)” value under setting [3] was 62 % UT. For the substance “1198240 (kT*kT*dA*dG*dG*dA*dT*dG*d[5mC]*dA*dT*eG*eG*eT*kT*kT) [Compound 1198240]”, the “YAP1 (% UTC)” value under setting [12] is 43 % UTC. In the case of “1200837 (kA*kT*kT*d[5mC]*dA*mG*dA*dT*dT*dT*dA*dG*dG*kA*kT*kG; antisense) [Compound 1200837]”, under setting [3], the “YAP1 (% UT)” value worked out at 82 % UT.

Turning to “1198734 (kA*eG*kG*dT*dA*dT*dA*dA*d[5mC]*dT*dG*dG*eG*e[5mC]*kA*kA; antisense) [Compound 1198734]”, for the setting “Table 41, SNU-449 cells, 10,000 cells per well, free uptake, 2,000 nM modified oligonucleotide, approximately 48 hours, RTS36584, normalized to RIBOGREEN, Yap1 mRNA relative to untreated control cells”, the “YAP1 (% UTC)” value stood at 29 % UTC. As to “1198743 (k[5mC]*eT*kT*dT*dT*dA*d[5mC]*dA*dT*dT*dA*dG*eG*eA*kA*k[5mC]; antisense) [Compound 1198743]”, under setting [6], the “YAP1 (% UTC)” value was found to be 86 % UTC. On to “1200792 (kA*kT*kA*dT*dG*mG*dA*dA*dA*dT*dT*dG*dT*k[5mC]*kT*k[5mC]; antisense) [Compound 1200792]”, for which the “YAP1 (% UT)” value under setting [3] turned out to be 52 % UT. On to “1198945 (kA*k[5mC]*dT*d[5mC]*dT*dT*dA*dT*dA*dT*dG*kG*dT*kT*dT*kT; antisense) [Compound 1198945]”, for which the “YAP1 (% UTC)” value under setting [8] was 48 % UTC. As for “1198890 (kT*kG*dT*d[5mC]*dT*d[5mC]*dA*dT*dG*d[5mC]*d[5mC]*kT*dT*kA*dT*kA) [Compound 1198890]”, the “YAP1 (% UTC)” value under setting [2] was found to be 19 % UTC.

As for “1197251 (antisense kT*kT*kT*dG*mG*dA*dA*dG*dA*dT*d[5mC]*dT*dG*kA*kA*kA) [Compound 1197251]”, the “YAP1 (% UT)” value under setting [11] is reported as 74 % UT. For the substance “1200849 (kA*kA*kT*dA*dT*mU*dG*d[5mC]*dA*dA*dT*d[5mC]*dT*kG*kT*k[5mC]; antisense) [Compound 1200849]”, under setting [3], the “YAP1 (% UT)” value is given as 53 % UT. Take “1095453 (antisense kT*kG*kA*dG*dG*dT*dA*dT*dA*dA*d[5mC]*dT*kG*kG*kG*e[5mC]) [Compound 1095453]”: the “YAP1 (% UT)” value under setting [10] worked out at 32 % UT. Regarding “1200829 (kA*kG*kG*dA*dT*mG*d[5mC]*dA*dT*dG*dG*dT*dT*kT*kT*kT; antisense) [Compound 1200829]”, the “YAP1 (% UT)” value under setting [3] worked out at 49 % UT. For the substance “1197280 (kT*kG*kT*d[5mC]*mU*d[5mC]*dA*dT*dG*d[5mC]*d[5mC]*dT*dT*kA*kT*kA; antisense) [Compound 1197280]”, under setting [10], the “YAP1 (% UT)” value is recorded as 53 % UT.

For the substance “1198401 (kT*dT*dA*dA*dG*d[5mC]*dA*d[5mC]*dT*dT*dT*kT*eA*k[5mC]*eA*kT; antisense) [Compound 1198401]”, the “YAP1 (% UTC)” value under setting [1] was 63 % UTC.
